# Experimental data from patent US5326882A, “Chemiluminescent 3-(substituted Adamant-2'-Ylidene) 1,2-dioxetanes” (Tropix, Inc., priority 1992, dated 1994).
# Tests used:
# alkaline phosphatase [1] = target: T1, alkaline phosphatase (Bos taurus, UniProt P19111); experiment: Chemiluminescent signal and signal:background with enhancer polymers (Example XVII); assay type: biochemical
# Protocol: Four sets of three tubes each, each tube in each set containing 450 μl of a 0.4 mM aqueous solution of one of the four 1,2-dioxetanes being compared in 0.1M diethanolamine containing 1 mM magnesium chloride, 0.02% sodium azide and 0.1% of the enhancer polymer, pH 10.0 (substrate buffer) were prepared and the background signal from each tube measured using a Berthold LB 952T luminometer (Berthold Instruments; Wildbad, Federal Republic of Germany).
# Next, 50 μl of an aqueous solution, 2.83×10^-12 M of alkaline phosphatase in 0.1M diethanolamine containing 1 mM magnesium chloride, 0.02% sodium azide, pH 10.0, (final enzyme concentration 2.83×10^-13 M) was added to each tube and the chemiluminescent signals were measured in the luminometer at 5 and 20 minutes. The intensity of the chemiluminescent signals and the signal: background ratios obtained for each of the four 1,2-dioxetanes in the presence of the enhancer polymers are shown in Table III below.
# The enhancer polymers used, and the symbols for such polymers used in Table III, were the following: […]
# alkaline phosphatase [2] = target: T1, alkaline phosphatase; experiment: Chemiluminescent signal-to-noise levels with enhancers (Example XXIV); assay type: biochemical
# Protocol: The chemiluminescent signal to noise levels were obtained with 2.83×10^-13 M alkaline phosphatase and various R-substituted adamantyl 1,2-dioxetane phosphates in the presence of several enhancers. All measurements were performed in a Berthold LB952T luminometer at room temperature. First, the background chemiluminescence levels (signal in the absence of the enzyme) of each sample (in triplicate) were measured. Each sample consisted of 0.2 μmoles of dioxetane in 0.45 ml of 0.1 M diethanolamine, 1 mM MgCl2, pH 10.0, without or with 1 mg/ml of the indicated enhancer. Tubes were inserted into the luminometer and the luminescence intensity was measured. Next, the tubes were removed from the luminometer and alkaline phosphatase (50 μl containing 1.415×10^-16 moles) was added to each tube, and the luminescence intensity was measured at 5 and 20 minutes after substrate addition. The final concentration of dioxetane in each tube was 0.4 mM.
# All enhancers used at 1 mg/ml in 0.1 M DEA, pH 10. Alkaline phosphatase concentration=2.83×10^-13 M. Measurements performed in a Berthold LB952T Luminometer.
# T1 sequence (P19111 20-506 limits assumed): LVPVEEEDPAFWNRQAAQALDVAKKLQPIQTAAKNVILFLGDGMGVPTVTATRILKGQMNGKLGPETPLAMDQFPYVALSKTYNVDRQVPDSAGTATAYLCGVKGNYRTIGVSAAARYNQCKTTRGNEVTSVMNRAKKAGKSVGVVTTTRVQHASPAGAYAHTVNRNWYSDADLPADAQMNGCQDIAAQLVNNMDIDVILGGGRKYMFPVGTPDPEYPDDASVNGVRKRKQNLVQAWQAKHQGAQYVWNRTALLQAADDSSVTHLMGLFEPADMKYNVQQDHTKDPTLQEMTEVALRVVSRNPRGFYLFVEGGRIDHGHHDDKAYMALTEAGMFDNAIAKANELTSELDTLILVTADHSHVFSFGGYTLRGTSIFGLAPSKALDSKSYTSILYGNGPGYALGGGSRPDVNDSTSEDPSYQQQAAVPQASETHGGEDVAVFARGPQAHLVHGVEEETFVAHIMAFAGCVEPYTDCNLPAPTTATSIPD
smiles,measurement,setting,value
"COC1(c2cccc(OP(=O)(O)O)c2)OOC12C1CC3CC(C1)CC2C3 (stereo not shown) [AMPPD, 3-(4-methoxyspiro[1,2-dioxetane-3,2'-triyclo[3.3.1.1^3,7]decan]-4-yl)phenyl phosphate, reference compound]",S/N,"alkaline phosphatase [1]; polymer BAEDM, 5 min",107.6
same,SIGNAL,"alkaline phosphatase [1]; polymer BAEDM, 5 min",9275.3
same,S/N,"alkaline phosphatase [1]; polymer BAEDM, 20 min",306.5
same,SIGNAL,"alkaline phosphatase [1]; polymer BAEDM, 20 min",26529.1
same,S/N,"alkaline phosphatase [1]; polymer BAEDM, time 0",1.0
same,SIGNAL,"alkaline phosphatase [1]; polymer BAEDM, time 0 (background, before enzyme)",217.3
same,S/N,"alkaline phosphatase [1]; polymer BZ, 5 min",18.3
same,SIGNAL,"alkaline phosphatase [1]; polymer BZ, 5 min",2738.0
same,S/N,"alkaline phosphatase [1]; polymer BZ, 20 min",30.9
same,SIGNAL,"alkaline phosphatase [1]; polymer BZ, 20 min",4611.5
same,S/N,"alkaline phosphatase [1]; polymer BZ, time 0",1.0
same,SIGNAL,"alkaline phosphatase [1]; polymer BZ, time 0 (background, before enzyme)",149.4
same,S/N,"alkaline phosphatase [1]; polymer DAA TMQ, 5 min",46.4
same,SIGNAL,"alkaline phosphatase [1]; polymer DAA TMQ, 5 min",8354.4
same,S/N,"alkaline phosphatase [1]; polymer DAA TMQ, 20 min",83.1
same,SIGNAL,"alkaline phosphatase [1]; polymer DAA TMQ, 20 min",14957.3
same,S/N,"alkaline phosphatase [1]; polymer DAA TMQ, time 0",1.0
same,SIGNAL,"alkaline phosphatase [1]; polymer DAA TMQ, time 0 (background, before enzyme)",180.0
same,S/N,"alkaline phosphatase [1]; polymer DME(OH)B, 5 min",21.4
same,SIGNAL,"alkaline phosphatase [1]; polymer DME(OH)B, 5 min",3462.3
same,S/N,"alkaline phosphatase [1]; polymer DME(OH)B, 20 min",52.9
same,SIGNAL,"alkaline phosphatase [1]; polymer DME(OH)B, 20 min",8540.9
same,S/N,"alkaline phosphatase [1]; polymer DME(OH)B, time 0",1.0
same,SIGNAL,"alkaline phosphatase [1]; polymer DME(OH)B, time 0 (background, before enzyme)",161.6
same,S/N,"alkaline phosphatase [1]; polymer DMEB, 5 min",52.6
same,SIGNAL,"alkaline phosphatase [1]; polymer DMEB, 5 min",9401.5
same,S/N,"alkaline phosphatase [1]; polymer DMEB, 20 min",114.4
same,SIGNAL,"alkaline phosphatase [1]; polymer DMEB, 20 min",20434.9
same,S/N,"alkaline phosphatase [1]; polymer DMEB, time 0",1.0
same,SIGNAL,"alkaline phosphatase [1]; polymer DMEB, time 0 (background, before enzyme)",178.6
same,S/N,"alkaline phosphatase [1]; polymer DMQ TEQ, 5 min",133.9
same,SIGNAL,"alkaline phosphatase [1]; polymer DMQ TEQ, 5 min",32820.5
same,S/N,"alkaline phosphatase [1]; polymer DMQ TEQ, 20 min",322.1
same,SIGNAL,"alkaline phosphatase [1]; polymer DMQ TEQ, 20 min",78977.4
same,S/N,"alkaline phosphatase [1]; polymer DMQ TEQ, time 0",1.0
same,SIGNAL,"alkaline phosphatase [1]; polymer DMQ TEQ, time 0 (background, before enzyme)",245.2
same,SIGNAL,"alkaline phosphatase [1]; polymer EMERALD (sapphire and fluorescein), time 0 (background, before enzyme)",2902.1
same,S/N,"alkaline phosphatase [1]; polymer EMERALD, 5 min",109.4
same,SIGNAL,"alkaline phosphatase [1]; polymer EMERALD, 5 min",317571.6
same,S/N,"alkaline phosphatase [1]; polymer EMERALD, 20 min",282.1
same,SIGNAL,"alkaline phosphatase [1]; polymer EMERALD, 20 min",818775.8
same,S/N,"alkaline phosphatase [1]; polymer EMERALD, time 0",1.0
same,S/N,"alkaline phosphatase [1]; polymer MPB, 5 min",94.3
same,SIGNAL,"alkaline phosphatase [1]; polymer MPB, 5 min",19971.8
same,S/N,"alkaline phosphatase [1]; polymer MPB, 20 min",196.9
same,SIGNAL,"alkaline phosphatase [1]; polymer MPB, 20 min",41701.8
same,S/N,"alkaline phosphatase [1]; polymer MPB, time 0",1.0
same,SIGNAL,"alkaline phosphatase [1]; polymer MPB, time 0 (background, before enzyme)",211.8
same,S/N,"alkaline phosphatase [1]; polymer NONE, 5 min",21.5
same,SIGNAL,"alkaline phosphatase [1]; polymer NONE, 5 min, enzyme 2.83×10^-13 M",3706.0
same,S/N,"alkaline phosphatase [1]; polymer NONE, 20 min",34.4
same,SIGNAL,"alkaline phosphatase [1]; polymer NONE, 20 min, enzyme 2.83×10^-13 M",5944.8
same,S/N,"alkaline phosphatase [1]; polymer NONE, time 0",1.0
same,SIGNAL,"alkaline phosphatase [1]; polymer NONE, time 0 (background, before enzyme)",172.6
same,S/N,"alkaline phosphatase [1]; polymer S/TMQ(1:2), 5 min",20.2
same,SIGNAL,"alkaline phosphatase [1]; polymer S/TMQ(1:2), 5 min",3437.0
same,S/N,"alkaline phosphatase [1]; polymer S/TMQ(1:2), 20 min",58.9
same,SIGNAL,"alkaline phosphatase [1]; polymer S/TMQ(1:2), 20 min",9994.7
same,S/N,"alkaline phosphatase [1]; polymer S/TMQ(1:2), time 0",1.0
same,SIGNAL,"alkaline phosphatase [1]; polymer S/TMQ(1:2), time 0 (background, before enzyme)",169.8
same,S/N,"alkaline phosphatase [1]; polymer S/TMQ(1:4), 5 min",35.7
same,SIGNAL,"alkaline phosphatase [1]; polymer S/TMQ(1:4), 5 min",5931.5
same,S/N,"alkaline phosphatase [1]; polymer S/TMQ(1:4), 20 min",95.4
same,SIGNAL,"alkaline phosphatase [1]; polymer S/TMQ(1:4), 20 min",15866.3
same,S/N,"alkaline phosphatase [1]; polymer S/TMQ(1:4), time 0",1.0
same,SIGNAL,"alkaline phosphatase [1]; polymer S/TMQ(1:4), time 0 (background, before enzyme)",116.3
same,SIGNAL,"alkaline phosphatase [1]; polymer SAPPHIRE (BDMQ), time 0 (background, before enzyme)",241.4
same,S/N,"alkaline phosphatase [1]; polymer SAPPHIRE, 5 min",159.3
same,SIGNAL,"alkaline phosphatase [1]; polymer SAPPHIRE, 5 min",38457.8
same,S/N,"alkaline phosphatase [1]; polymer SAPPHIRE, 20 min",353.6
same,SIGNAL,"alkaline phosphatase [1]; polymer SAPPHIRE, 20 min",85359.8
same,S/N,"alkaline phosphatase [1]; polymer SAPPHIRE, time 0",1.0
same,SIGNAL,"alkaline phosphatase [1]; polymer TBQ-FLUOR (TBQ and fluorescein), time 0 (background, before enzyme)",4961.2
same,S/N,"alkaline phosphatase [1]; polymer TBQ-FLUOR, 5 min",113.9
same,SIGNAL,"alkaline phosphatase [1]; polymer TBQ-FLUOR, 5 min",57271.6
same,S/N,"alkaline phosphatase [1]; polymer TBQ-FLUOR, 20 min",291.4
same,SIGNAL,"alkaline phosphatase [1]; polymer TBQ-FLUOR, 20 min",1445675.6
same,S/N,"alkaline phosphatase [1]; polymer TBQ-FLUOR, time 0",1.0
same,S/N,"alkaline phosphatase [1]; polymer TBQ, 5 min",191.2
same,SIGNAL,"alkaline phosphatase [1]; polymer TBQ, 5 min",94429.4
same,S/N,"alkaline phosphatase [1]; polymer TBQ, 20 min",433.9
same,SIGNAL,"alkaline phosphatase [1]; polymer TBQ, 20 min",214319.4
same,S/N,"alkaline phosphatase [1]; polymer TBQ, time 0",1.0
same,SIGNAL,"alkaline phosphatase [1]; polymer TBQ, time 0 (background, before enzyme)",493.9
same,S/N,"alkaline phosphatase [1]; polymer TEQ, 5 min",115.3
same,SIGNAL,"alkaline phosphatase [1]; polymer TEQ, 5 min",25095.8
same,S/N,"alkaline phosphatase [1]; polymer TEQ, 20 min",229.7
same,SIGNAL,"alkaline phosphatase [1]; polymer TEQ, 20 min",50020.0
same,S/N,"alkaline phosphatase [1]; polymer TEQ, time 0",1.0
same,SIGNAL,"alkaline phosphatase [1]; polymer TEQ, time 0 (background, before enzyme)",217.8
same,S/N,"alkaline phosphatase [1]; polymer TMQ, 5 min",65.8
same,SIGNAL,"alkaline phosphatase [1]; polymer TMQ, 5 min",10525.8
same,S/N,"alkaline phosphatase [1]; polymer TMQ, 20 min",141.1
same,SIGNAL,"alkaline phosphatase [1]; polymer TMQ, 20 min",22558.3
same,S/N,"alkaline phosphatase [1]; polymer TMQ, time 0",1.0
same,SIGNAL,"alkaline phosphatase [1]; polymer TMQ, time 0 (background, before enzyme)",159.9
same,chemiluminescent signal-to-noise level,"alkaline phosphatase [2]; EMERALD 1 1 mg/ml, 5 min",109
same,chemiluminescent signal-to-noise level,"alkaline phosphatase [2]; EMERALD 1 1 mg/ml, 20 min",282
same,chemiluminescent signal-to-noise level,"alkaline phosphatase [2]; EMERALD 2 1 mg/ml, 5 min",113
same,chemiluminescent signal-to-noise level,"alkaline phosphatase [2]; EMERALD 2 1 mg/ml, 20 min",291
same,chemiluminescent signal-to-noise level,"alkaline phosphatase [2]; SAPPHIRE 1 1 mg/ml, 5 min",159
same,chemiluminescent signal-to-noise level,"alkaline phosphatase [2]; SAPPHIRE 1 1 mg/ml, 20 min",364
same,chemiluminescent signal-to-noise level,"alkaline phosphatase [2]; SAPPHIRE 2 1 mg/ml, 5 min",192
same,chemiluminescent signal-to-noise level,"alkaline phosphatase [2]; SAPPHIRE 2 1 mg/ml, 20 min",434
same,chemiluminescent signal-to-noise level,"alkaline phosphatase [2]; enhancer NONE, 5 min, alkaline phosphatase 2.83×10^-13 M",21
same,chemiluminescent signal-to-noise level,"alkaline phosphatase [2]; enhancer NONE, 20 min",34
